Consider nine compounds from ChEMBL document CHEMBL1139572 (Bioorg Med Chem Lett, 2005).

In general, Ki refers to a dissociation constant, usually derived from enzyme kinetics or from competition with a known ligand. Low values mean tighter binding, high ones weaker binding.

Assay [1] addresses T1, Progesterone receptor (Homo sapiens, UniProt P06401).
T1 sequence (P06401 whole entry): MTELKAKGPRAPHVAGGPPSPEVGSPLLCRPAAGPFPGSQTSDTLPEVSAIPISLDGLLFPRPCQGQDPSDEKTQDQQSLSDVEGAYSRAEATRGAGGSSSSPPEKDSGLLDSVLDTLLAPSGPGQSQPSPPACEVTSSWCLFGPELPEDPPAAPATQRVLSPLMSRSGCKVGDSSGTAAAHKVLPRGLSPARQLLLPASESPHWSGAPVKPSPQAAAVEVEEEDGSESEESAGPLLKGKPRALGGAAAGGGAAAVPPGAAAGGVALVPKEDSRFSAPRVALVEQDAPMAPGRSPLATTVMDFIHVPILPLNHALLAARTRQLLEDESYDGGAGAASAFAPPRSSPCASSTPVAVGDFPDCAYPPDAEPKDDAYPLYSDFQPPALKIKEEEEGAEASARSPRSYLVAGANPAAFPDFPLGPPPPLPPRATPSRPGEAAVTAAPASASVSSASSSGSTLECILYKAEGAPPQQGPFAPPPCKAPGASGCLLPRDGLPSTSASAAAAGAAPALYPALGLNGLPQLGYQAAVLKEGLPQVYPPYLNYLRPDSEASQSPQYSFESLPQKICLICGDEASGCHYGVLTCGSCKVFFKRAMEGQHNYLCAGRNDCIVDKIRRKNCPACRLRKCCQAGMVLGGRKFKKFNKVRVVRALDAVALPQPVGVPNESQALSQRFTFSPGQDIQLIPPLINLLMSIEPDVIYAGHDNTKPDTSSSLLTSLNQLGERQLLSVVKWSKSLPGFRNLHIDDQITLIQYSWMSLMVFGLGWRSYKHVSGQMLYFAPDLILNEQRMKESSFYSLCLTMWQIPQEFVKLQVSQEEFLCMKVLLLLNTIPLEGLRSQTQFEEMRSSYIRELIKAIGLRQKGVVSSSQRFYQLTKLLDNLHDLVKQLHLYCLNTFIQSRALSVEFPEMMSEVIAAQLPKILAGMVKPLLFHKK
As to the kind of experiment: Inhibition of 4 nM progesterone-stimulated transactivation of MMTV-Luc reporter in CV-1 cells expressing PR-B. The format is functional, cell-based.

Assay [2] addresses T1, Progesterone receptor. As to the kind of experiment: Displacement of fluorescent ligand from binding domain of progesterone receptor.

Molecules are shown by their SMILES.

Take `CC1CC(c2ccc(Cl)c(Cl)c2)=NN1S(=O)(=O)c1ccc(Cl)cc1` (stereo unspecified): on Progesterone receptor [1], the Log IC50 is -6.7. In addition, at Progesterone receptor [2], the Ki was 39.8 nM.

At Progesterone receptor [1], `CN(C)c1ccc([C@@H]2CN(S(=O)(=O)c3ccc(Cl)cc3)N=C2c2ccc(Cl)c(Cl)c2)cc1` had a Log IC50 of -5.8. Further, at Progesterone receptor [2], the affinity, expressed as Ki, was 100 nM.

Consider `O=S(=O)(c1ccc(Cl)cc1)N1N=C(c2ccc(Cl)c(Cl)c2)CC1c1ccccc1` (stereo unspecified), for which the Log IC50 at Progesterone receptor [1] was -6.4. The compound further had a Ki at Progesterone receptor [2] of 7940 nM.

Compound `CN(C)c1ccc(C2CN(S(=O)(=O)c3ccc(Cl)cc3)N=C2c2ccc(Cl)c(Cl)c2)cc1` (stereo unspecified) had a Log IC50 at Progesterone receptor [1] of -6.1. At Progesterone receptor [2], this compound had an inhibitory constant (Ki) of 39.8 nM.

Compound `C[C@@H]1CN(S(=O)(=O)c2ccc(Cl)cc2)N=C1c1ccc(Cl)c(Cl)c1` gave a Log IC50 on Progesterone receptor [1] of -5.3. At Progesterone receptor [2], the affinity corresponds to a Ki of 2000 nM.

For `C[C@H]1CN(S(=O)(=O)c2ccc(Cl)cc2)N=C1c1ccc(Cl)c(Cl)c1`, at Progesterone receptor [1], the Log IC50 is -7.6. The affinity at Progesterone receptor [2], expressed as Ki, was 20 nM.

Turning to `O=S(=O)(c1ccc(Cl)cc1)N1CC(c2ccccc2)C(c2ccc(Cl)c(Cl)c2)=N1` (stereo unspecified), the affinity on Progesterone receptor [2] corresponds to a Ki of 100 nM. This counts as sub-micromolar.

As for `CC1CN(S(=O)(=O)c2ccc(Cl)cc2)N=C1c1ccc(Cl)c(Cl)c1` (stereo unspecified), the Ki at Progesterone receptor [2] was 39.8 nM. This Ki is about 2.5-fold lower than that of the compound before.

With `CN(C)c1ccc([C@H]2CN(S(=O)(=O)c3ccc(Cl)cc3)N=C2c2ccc(Cl)c(Cl)c2)cc1`, the Log IC50 on Progesterone receptor [1] was greater than -5.5. This compound also gave an inhibition constant (Ki) at Progesterone receptor [2] greater than 10000 nM.
